According to patent publication US9980937B2, “Therapeutic agent for Alzheimer's disease” (NAGASAKI UNIVERSITY, priority 2014, dated 2018):

Assays:
neprilysin [1] = experiment: neprilysin-dependent neutral endopeptidase activity of APP-H4 cell extract (suc-AAF-AMC coupled enzyme assay); format: cell-based, human; settings: APP-H4 cells, 48 hr, 1 or 10 μM; activity without polyphenol derivative = 1 (FIG. 1)
Description: (§1) APP-H4 cells were seeded to a 6-well plate at a density of 12×10^4 cells/1.5 mL, and cultured in Dulbecco's modified Eagle's medium (DMEM; Nacalai Tesque, Inc.) added with 10% fetal bovine serum (FBS; Equitech-Bio, Inc. [Kerrville, Tex., USA]), 100 U/mL penicillin+100 μg/mL streptomycin (Nacalai Tesque, Inc.). After culture for 24 hr, the culture supernatant was removed, and the medium was exchanged with a medium with reduced use amount of serum, Opti-MEM (registered trade mark) I Reduced Serum Medium (Life Technologies Corporation, Carlsbad, Calif., USA) (1 mL). A polyphenol derivative (1 μL) to be the test target was added, and the mixture was further cultured for 48 hr. After culture, the culture supernatant was recovered in a tube (total amount 1.5 mL), centrifuged at 4,000×g/4° C./10 min to remove dead cells, and the supernatant (800 μL) was placed in a new tube. The culture supernatant was preserved at −80° C. before sample preparation. The cells were washed twice with ice-cooled phosphate-buffered saline (PBS). Thereafter, the cells were scraped from the plate using a Cell Scraper. The cells were recovered in a 1.5 mL tube and centrifuged at 4,000×g/4° C./10 min. The supernatant was removed and the cells were preserved at −80° C. before sample preparation. The frozen cells were lysed in 40 μL of solubilization buffer containing 1% Triton X-100, protease inhibitor cocktail Complete™ EDTA-free (Roche) and 50 mM Tris-HCl on ice. The cell lysate was incubated on ice for 60 min, centrifuged at 4° C., 21,900×g for 30 min, and the supernatant was recovered and used as a solubilization cell extract.
The total protein concentration of the cell extract was determined by a BCA protein assay kit (Takara) by using BSA as the standard solution. The final concentration of the test compound used was 1 μM or 10 μM, and quantification was performed using each solvent as a control.
The neprilysin-dependent neutral endopeptidase activity of the cell extract was measured fluorescence quantitatively by an indirect coupled enzyme assay method. […] Total 50 μL of the reaction mixture was prepared such that the final concentration was substrate 0.1 mM suc-AAF-AMC, protein in the cell extract 1-6 μg, 100 mM MES buffer (pH 6.5). With the time of addition of the substrate as the start of the reaction, the mixture was reacted at 37° C. for 1 hr, and Phe-AMC was cut out from the substrate by neutral endopeptidase. […] The mixture was reacted at 37° C. for 30 min, and Phe (phenylalanine) residue was cut out from Phe-AMC by aminopeptidase.

neprilysin [2] = experiment: neprilysin activity staining of primary culture nerve cells; format: cell-based; settings: mouse primary culture nerve cells, 48 hr; Minocycline 5 μM, Somatostatin and Harmine 1 μM, others 10 μM (FIG. 4C)
Description: This is a method of measuring the amount of neprilysin localized on the cell membrane surface by using cultured cells. Since Aβ is secreted extracellularly, the more neprilysin is present on the cell membrane, the more efficiently Aβ can be degraded and removed. The following procedure was performed according to a previous report (JP-A-2004-151079; Saito T., Iwata N., et al., Nat. Med. 11(4), 434-439, 2005).
Nerve cells prepared from mouse embryocerebral cortex and hippocampus were cultured and fixed, and reacted with a substrate. After completion of the reaction, aminopeptidase-phosphoramidon mixture and nitrosalicylaldehyde solution were sequentially added and reacted. For the cells after completion of the reaction, positively stained images were observed using a filter for argon laser and rhodamine under a confocal laser microscope. More conveniently, it is also possible to observe positively stained images by using a FITC filter under a fluorescence microscope. When the substrate is degraded by neprilysin, an insoluble fluorescence reaction product is formed, and the site where neprilysin is present is visualized in yellow (pseudocolor and could be green). When the cells are stained by this method, the copresence of thiorphan, which is a specific inhibitor of neprilysin, causes disappearance of the positively stained images, and therefore, the presence of neprilysin on the cell surface of primary culture nerve cells of mouse embryocerebral cortex and hippocampus can be confirmed.
The nerve cells prepared from mouse embryocerebral cortex and hippocampus were cultured, the following test compounds were individually added at a given concentration from day 7 to day 21 of culture, and further cultured for 48 hr. After completion of the culture, the neprilysin activity of the mouse primary culture nerve cells was visualized and observed by the method shown in the above-mentioned 1. The stained images were quantified by an image analysis software (MetaMorph, ver. 7.7 (Universal Imaging Corporation, Downington, Pa.)) and studied. […]

[3] = coefficient of partition for octanol, in accordance with Fudouji et al. 2009; cited from earlier work
α-secretase = α-secretase activity (APPsα, western blot); format: cell-based, human; settings: APP-H4 culture supernatant, APPsα (FIG. 2)
Description: as §1, with “The cells were recovered in a 1.5 mL tube and centrifuged at 4,000×g/4° C./10 min. The supernatant was removed and the cells were preserved at −80° C. before sample preparation. The frozen cells were lysed in 40 μL of solubilization buffer containing 1% Triton X-100, protease inhibitor cocktail Complete™ EDTA-free (Roche) and 50 mM Tris-HCl on ice. The cell lysate was incubated on ice for 60 min, centrifuged at 4° C., 21,900×g for 30 min, and the supernatant was recovered and used as a solubilization cell extract.” left out
(§2) The signal intensity of the band was quantified using a densitometer LAS-4000 (GE Healthcare UK Ltd.) and image analysis software Science Laboratory 2003 Image Gauge Version 4.23 (Fujifilm Holdings Corporation, Tokyo, Japan). […]

neprilysin [4] = experiment: neprilysin expression amount at protein level (western blot, APP-H4 cells); format: cell-based, human; settings: 48 hr, standardized to β-actin (FIG. 2)
Description: as §1
The aforementioned cell extract was mixed with 6×SDS-polyacrylamide gel electrophoresis (SDS-PAGE) sample buffer (Nacalai Tesque, Inc.) at a ratio of 5:1, boiled for 5 min, and used as a detection sample of neprilysin, α-secretase and β-secretase proteins.
The PVDF membrane after transfer was washed with a wash buffer and immersed in a blocking buffer to prevent non-specific binding of the primary antibody, and a blocking reaction was performed at room temperature for 1 hr. […] The PVDF membrane after the reaction was washed with the wash buffer and the secondary antibody (horseradish peroxidase conjugated anti-mouse or anti-rabbit IgG (1:10,000; GE Healthcare UK Ltd.)) corresponding to the primary antibody was reacted at room temperature for 1 hr and detection was carried out using the ECL Select Western Blotting Detection Kit (GE Healthcare UK Ltd.).
The signal intensity of the band was quantified using a densitometer LAS-4000 (GE Healthcare UK Ltd.) and image analysis software Science Laboratory 2003 Image Gauge Version 4.23 (Fujifilm Holdings Corporation, Tokyo, Japan).

APP = experiment: extracellularly secreted APPsα/APPsβ ratio (western blot); format: cell-based, human; settings: APP-H4 culture supernatant (FIG. 2)
Description: as §1
(§3) After thawing from −80° C., the aforementioned culture supernatant was mixed with 6×SDS-polyacrylamide gel electrophoresis (SDS-PAGE) sample buffer (Nacalai Tesque, Inc.) at a ratio of 5:1, boiled for 5 min, and used as a detection sample of APPsα which is a metabolite of APP by α-secretase and APPsβ which is a metabolite of APP by β-secretase in western blot analysis.
The PVDF membrane after transfer was washed with a wash buffer and immersed in a blocking buffer to prevent non-specific binding of the primary antibody, and a blocking reaction was performed at room temperature for 1 hr. Thereafter, it was reacted with a primary antibody (APPsα, anti-human APPsα mouse monoclonal antibody (2B3, Immuno-Biological Laboratories Co., Ltd., Gunma, Japan) (3 μg/mL); APPsβ, anti-APPsβ, rabbit polyclonal antibody, 1 μg/mL) to perform an antigen-antibody-reaction at 4° C. for not less than 16 hr. […]
as §2

ADAM17 = experiment: α-secretase mRNA expression, ADAM17 (real-time PCR); format: cell-based, human; settings: control = 1
Description: In the same manner as in the above-mentioned 2, total RNA was prepared using a High Pure RNA Isolation kit (Roche 11828665001) from the cells to be the test target cells, which were treated with each polyphenol derivative and cultured, and subjected to a reverse transcription reaction using PrimeScript RT-PCR kit (TaKaRaRR014A) to give a sample (cDNA) for real-time PCR.
The prepared sample, Premix Ex taq (Perfect Real Time) (TaKaRaRR039A) and a probe, and a primer were mixed in a tube (TaKaRa SC910A), and real-time PCR reaction (initial denaturation: 95° C. 30 sec, PCR reaction: 95° C. 5 sec, 60° C. 20 sec, 40 times) was performed by Smart Cycler II System machine (TaKaRa).
The 5′-terminus of the probe was modified by a fluorescent substance FAM, and the 3′-terminus was modified by a quencher substance TAMRA, respectively.

[5] = system: neprilysin, α-secretase, β-secretase; experiment: overall conclusion on modulation of neprilysin, α-secretase and β-secretase (Example 1); format: cell-based, human; settings: conclusion from the results of Example 1
Description: as §1
The neprilysin-dependent neutral endopeptidase activity of the cell extract was measured fluorescence quantitatively by an indirect coupled enzyme assay method. As a neutral endopeptidase substrate, succinyl-Ala-Ala-Phe-7-amino-4-methylcoumarin (suc-AAF-AMC) (1-1315; Bachem) was used. Total 50 μL of the reaction mixture was prepared such that the final concentration was substrate 0.1 mM suc-AAF-AMC, protein in the cell extract 1-6 μg, 100 mM MES buffer (pH 6.5). With the time of addition of the substrate as the start of the reaction, the mixture was reacted at 37° C. for 1 hr, and Phe-AMC was cut out from the substrate by neutral endopeptidase. Then, to the reaction mixture was added a solution (2.5 μL) containing 0.1 mg (0.4 unit equivalent)/mL leucine aminopeptidase (L-5006; Sigma-Aldrich), and 0.2 mM phosphoramidon (4082; Peptide Institute). The mixture was reacted at 37° C. for 30 min, and Phe (phenylalanine) residue was cut out from Phe-AMC by aminopeptidase. Using microplate spectrometer Infinite M-1000 (Tecan), the fluorescence intensity of free AMC was measured by measuring at an excitation wavelength 390 nm and a fluorescence wavelength 460 nm on a half-well size 96-well black plate (#3695; Corning). The neprilysin-dependent neutral endopeptidase activity was determined based on a decrease in the activity due to 10 μM thiorphan (T-6031; Sigma-Aldrich) as a neprilysin specific inhibitor.
as §3, with “analysis. […]” for “analysis.”

β-secretase = molecular target: T1, β-secretase (Homo sapiens, UniProt P56817); experiment: β-secretase activity (APPsβ, western blot); format: cell-based; settings: APP-H4 culture supernatant, APPsβ (FIG. 2)
T1 construct: endogenous in cells; host or cells: APP-H4 cells (culture supernatant analysed)
T1 sequence (P56817 46-501): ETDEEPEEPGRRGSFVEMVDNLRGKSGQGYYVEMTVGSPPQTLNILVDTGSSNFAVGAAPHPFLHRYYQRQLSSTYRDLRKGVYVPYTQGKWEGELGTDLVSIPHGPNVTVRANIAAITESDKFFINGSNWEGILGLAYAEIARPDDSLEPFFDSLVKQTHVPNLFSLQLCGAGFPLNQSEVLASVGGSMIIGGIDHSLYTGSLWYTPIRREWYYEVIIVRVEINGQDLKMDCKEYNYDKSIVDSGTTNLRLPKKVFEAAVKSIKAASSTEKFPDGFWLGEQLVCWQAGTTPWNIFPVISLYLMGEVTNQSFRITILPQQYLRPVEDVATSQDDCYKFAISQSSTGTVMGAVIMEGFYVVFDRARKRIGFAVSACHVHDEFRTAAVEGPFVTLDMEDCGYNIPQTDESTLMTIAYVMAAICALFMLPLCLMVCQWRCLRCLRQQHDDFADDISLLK
Description: as §1, with “extract. […]” for “extract.”
as §2

modulator class (neprilysin / α-secretase / β-secretase) [5]	β-secretase activity, remaining relative to control (β-secretase)	SMILES	neprilysin activity potentiating action (neprilysin [1])	neprilysin activity potentiating action (activity staining) (neprilysin [2])	log P octanol [3]	α-secretase activity (α-secretase)	expression amount of neprilysin at the protein level (neprilysin [4])	extracellularly secreted APPsα/APPsβ ratio (APP)	ADAM17 expression at the mRNA level (ADAM17)
–	–	Oc1ccc(/C=C/c2cc(O)cc(O)c2)cc1 [Resveratrol]	about 1.4 times that of control	neprilysin activity potentiating action	–	–	–	–	–
double modulator	–	CC(C)=CCC/C(C)=C/Cc1c(O)cc(O)c2c1O[C@H](c1cc(O)c(O)c(O)c1)[C@H](OC(=O)c1cc(O)c(O)c(O)c1)C2 [NUP-16]	about 1.8 times that of control	–	2.55	about 1.7 times that of control	about 1.8 times that of control	about 1.6 times that of control	about 1.2 times that of control
–	–	COc1ccc2c(c1)[nH]c1c(C)nccc12 [Harmine]	–	neprilysin activity potentiating action	–	–	–	–	–
–	–	CN(C)CCCN1c2ccccc2Sc2ccc(Cl)cc21 [Chlorpromazine]	–	neprilysin activity potentiating action	–	–	–	–	–
triple modulator	about 43 % that of control	C/C(=C\Cc1c(C(=O)O[C@@H]2Cc3c(O)cc(O)cc3O[C@@H]2c2cc(O)c(O)c(O)c2)cc(O)c(O)c1O)CCCC(C)CCCC(C)CCCC(C)C (some centres unmarked) [NUP-18]	about 3.8 times that of control	–	–	about 1.2 times that of control	about 3.8 times that of control	about 2.1 times that of control	–
